We go through 8 compounds from ChEMBL document CHEMBL4049386, “Discovery of an Inhibitor of the Proteasome Subunit Rpn11” (J Med Chem, 2017).

One may read the IC50 as the point on the concentration scale where inhibition reaches its midpoint. A word on the inhibition: it is how much of the control response was suppressed.

Active and inactive are the calls of the source. The rule behind the calls is not given here.

The test system of one series is A549. Description: Antiproliferative activity against human A549 cells after 72 hrs by Cell Titer-Glo assay. The class given is functional, cell-based. The note with it: A549, 72 h.
Another series relates to HEK-293T. Description: Antiproliferative activity against human 293T cells after 72 hrs by Cell Titer-Glo assay. Format: functional, cell-based. (In general: In ATP-based viability assays light output follows the ATP content of the culture.)
The target of series [1] is 72 kDa type IV collagenase (Homo sapiens, UniProt P08253). The experiment in a line: Inhibition of recombinant human MMP2 catalytic domain (Tyr110 to Asp452 residues) expressed in yeast using Mca-Pro-Leu-Gly-Leu-Dpa-Ala-Arg-NH2.AcOH as substrate preincubated for 30 mins followed by substrate addition measured every minute for 20 mins by fluorescence assay.
72 kDa type IV collagenase, sequence (P08253 whole entry, the tested form may be a part): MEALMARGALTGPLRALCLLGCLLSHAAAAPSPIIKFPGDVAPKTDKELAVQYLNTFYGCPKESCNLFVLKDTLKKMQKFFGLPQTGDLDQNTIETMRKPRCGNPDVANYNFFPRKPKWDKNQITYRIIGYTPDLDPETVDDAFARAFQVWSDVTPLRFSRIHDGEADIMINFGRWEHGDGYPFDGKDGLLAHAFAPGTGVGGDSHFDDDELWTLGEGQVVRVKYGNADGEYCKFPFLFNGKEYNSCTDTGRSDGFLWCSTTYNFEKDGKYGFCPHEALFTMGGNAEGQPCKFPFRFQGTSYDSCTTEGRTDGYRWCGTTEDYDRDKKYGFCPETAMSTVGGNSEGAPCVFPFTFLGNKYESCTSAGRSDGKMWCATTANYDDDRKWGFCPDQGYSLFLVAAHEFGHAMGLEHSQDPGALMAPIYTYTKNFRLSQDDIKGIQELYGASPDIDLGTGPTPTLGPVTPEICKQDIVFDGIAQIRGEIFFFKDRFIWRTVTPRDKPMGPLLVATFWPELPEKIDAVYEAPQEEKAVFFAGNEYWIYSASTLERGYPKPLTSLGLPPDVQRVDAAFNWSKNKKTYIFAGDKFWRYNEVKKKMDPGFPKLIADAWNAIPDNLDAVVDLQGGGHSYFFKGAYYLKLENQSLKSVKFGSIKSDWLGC
For series [2], the target named is T1, 26S proteasome non-ATPase regulatory subunit 14 (Homo sapiens, UniProt O00487). The experiment in a line: Inhibition of 26S proteasome regulatory subunit RPN11 deubiquitinating activity in human erythrocytes using Ub4-pepOG protein substrate preincubated for 1 hr followed by substrate addition measured after 80 mins by fluorescence polarization assay. A general note: Polarisation of emitted light reports the rotation of a fluorescent probe.
T1 sequence (O00487 whole entry): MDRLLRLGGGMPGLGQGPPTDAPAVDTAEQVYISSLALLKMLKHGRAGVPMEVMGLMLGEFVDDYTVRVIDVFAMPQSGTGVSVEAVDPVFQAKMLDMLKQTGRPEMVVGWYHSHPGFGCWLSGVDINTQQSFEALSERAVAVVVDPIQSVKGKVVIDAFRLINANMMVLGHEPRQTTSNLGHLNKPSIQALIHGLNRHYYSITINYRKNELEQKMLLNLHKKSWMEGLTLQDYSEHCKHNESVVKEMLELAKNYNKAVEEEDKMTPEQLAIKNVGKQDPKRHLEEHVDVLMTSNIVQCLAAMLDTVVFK

A further series has as its target Histone deacetylase 1 (Homo sapiens, UniProt Q13547). Description: Inhibition of full length recombinant human C-terminal His/FLAG-tagged HDAC1 expressed in baculovirus expression system using substrate 3 preincubated for 5 mins followed by substrate addition measured after 30 mins by fluorescence assay.
In series [3] the target is T2, Protein deacetylase HDAC6 (Homo sapiens, UniProt Q9UBN7).
T2 sequence (Q9UBN7 whole entry): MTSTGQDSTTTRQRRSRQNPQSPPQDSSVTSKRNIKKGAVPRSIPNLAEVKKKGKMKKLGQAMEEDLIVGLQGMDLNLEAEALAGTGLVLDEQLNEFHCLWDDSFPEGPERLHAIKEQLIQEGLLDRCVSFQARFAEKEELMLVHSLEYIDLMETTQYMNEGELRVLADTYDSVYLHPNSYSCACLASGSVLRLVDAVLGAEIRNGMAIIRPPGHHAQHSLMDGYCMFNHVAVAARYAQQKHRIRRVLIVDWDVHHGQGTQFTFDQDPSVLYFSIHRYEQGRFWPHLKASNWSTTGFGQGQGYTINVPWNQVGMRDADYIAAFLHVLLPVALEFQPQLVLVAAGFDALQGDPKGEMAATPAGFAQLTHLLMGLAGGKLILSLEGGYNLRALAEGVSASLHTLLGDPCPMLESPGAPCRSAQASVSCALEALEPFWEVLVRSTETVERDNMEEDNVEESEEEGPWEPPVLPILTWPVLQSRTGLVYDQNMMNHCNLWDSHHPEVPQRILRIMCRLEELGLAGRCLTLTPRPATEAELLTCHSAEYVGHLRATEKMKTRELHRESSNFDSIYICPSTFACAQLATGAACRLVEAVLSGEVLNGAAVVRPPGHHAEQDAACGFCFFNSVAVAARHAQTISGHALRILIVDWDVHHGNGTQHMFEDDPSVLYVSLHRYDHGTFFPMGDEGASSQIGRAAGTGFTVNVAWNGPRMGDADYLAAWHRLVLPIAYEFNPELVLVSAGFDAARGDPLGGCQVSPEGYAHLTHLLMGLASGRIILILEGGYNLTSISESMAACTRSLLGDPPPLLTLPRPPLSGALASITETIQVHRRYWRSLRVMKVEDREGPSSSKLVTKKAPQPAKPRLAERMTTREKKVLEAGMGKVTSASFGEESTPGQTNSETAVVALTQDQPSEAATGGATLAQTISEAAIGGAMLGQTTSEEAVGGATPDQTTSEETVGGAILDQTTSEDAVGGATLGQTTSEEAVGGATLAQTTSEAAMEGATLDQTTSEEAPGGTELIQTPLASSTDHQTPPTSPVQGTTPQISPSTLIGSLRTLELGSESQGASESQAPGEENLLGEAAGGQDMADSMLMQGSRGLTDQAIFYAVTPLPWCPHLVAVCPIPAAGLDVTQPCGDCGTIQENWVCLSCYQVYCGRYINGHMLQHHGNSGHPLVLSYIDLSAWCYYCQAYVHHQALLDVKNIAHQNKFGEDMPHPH
Description: Inhibition of full length recombinant human N-terminal GST-tagged HDAC6 expressed in baculovirus expression system using substrate 3 preincubated for 5 mins followed by substrate addition measured after 30 mins by fluorescence assay.

In series [4] the target is T3, Polyunsaturated fatty acid 5-lipoxygenase (Homo sapiens, UniProt P09917).
T3 sequence (P09917 whole entry): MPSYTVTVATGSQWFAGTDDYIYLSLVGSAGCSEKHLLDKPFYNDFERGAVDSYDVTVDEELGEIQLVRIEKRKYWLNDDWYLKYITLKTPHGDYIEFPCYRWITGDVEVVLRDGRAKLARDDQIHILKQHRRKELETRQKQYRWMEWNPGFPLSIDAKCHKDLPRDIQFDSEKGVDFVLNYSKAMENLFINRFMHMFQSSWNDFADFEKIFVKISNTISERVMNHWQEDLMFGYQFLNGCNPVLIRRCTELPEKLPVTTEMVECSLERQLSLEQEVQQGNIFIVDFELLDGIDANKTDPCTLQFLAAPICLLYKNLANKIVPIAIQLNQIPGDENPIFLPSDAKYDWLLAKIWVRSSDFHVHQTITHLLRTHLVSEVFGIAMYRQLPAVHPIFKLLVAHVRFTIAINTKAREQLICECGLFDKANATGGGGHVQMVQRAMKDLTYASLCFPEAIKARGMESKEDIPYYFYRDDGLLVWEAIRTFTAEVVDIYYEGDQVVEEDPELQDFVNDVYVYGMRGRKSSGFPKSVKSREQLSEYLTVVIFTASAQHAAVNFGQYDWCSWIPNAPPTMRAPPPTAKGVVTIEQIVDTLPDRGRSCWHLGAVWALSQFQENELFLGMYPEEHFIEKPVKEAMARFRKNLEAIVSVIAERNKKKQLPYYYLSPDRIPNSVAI
The experiment in a line: Inhibition of recombinant human 5-LO expressed in baculovirus infected sf9 cells using arachidonic acid as substrate preincubated for 10 mins followed by substrate addition measured every minute for 20 mins by H2DCFDA dye based fluorescence assay.

The next series addresses Carbonic anhydrase 2 (Homo sapiens, UniProt P00918). The experiment in a line: Inhibition of human carbonic anhydrase-2 using p-nitrophenylacetate as substrate preincubated for 10 mins followed by substrate addition.
The target of series [5] is COP9 signalosome complex subunit 5 (Homo sapiens, UniProt Q92905). Description: Inhibition of CSN5 (unknown origin) using SCFskp2-Nedd8OG as substrate after 1 hr by fluorescence polarization assay.
COP9 signalosome complex subunit 5, sequence (Q92905 whole entry, one chain of several): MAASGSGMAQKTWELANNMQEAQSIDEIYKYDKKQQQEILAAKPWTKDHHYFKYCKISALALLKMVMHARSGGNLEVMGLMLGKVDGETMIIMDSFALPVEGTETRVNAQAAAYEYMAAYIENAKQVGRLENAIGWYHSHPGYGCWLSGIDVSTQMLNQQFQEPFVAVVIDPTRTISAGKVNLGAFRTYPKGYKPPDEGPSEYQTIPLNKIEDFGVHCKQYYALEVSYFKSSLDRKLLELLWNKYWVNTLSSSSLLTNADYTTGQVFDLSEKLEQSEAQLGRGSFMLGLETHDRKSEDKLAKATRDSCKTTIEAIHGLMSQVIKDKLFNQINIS
A further series relates to HCT-116. Description: cells. The note with it: Homo sapiens, HCT-116, 72 h.
The target in series [6] is Lys-63-specific deubiquitinase BRCC36 (Homo sapiens) (UniProt P46736). Description: Inhibition of BRCC36 (unknown origin) using DiUbK63TAMRA as substrate by fluorescence assay.
Lys-63-specific deubiquitinase BRCC36 (Homo sapiens), sequence (P46736 whole entry): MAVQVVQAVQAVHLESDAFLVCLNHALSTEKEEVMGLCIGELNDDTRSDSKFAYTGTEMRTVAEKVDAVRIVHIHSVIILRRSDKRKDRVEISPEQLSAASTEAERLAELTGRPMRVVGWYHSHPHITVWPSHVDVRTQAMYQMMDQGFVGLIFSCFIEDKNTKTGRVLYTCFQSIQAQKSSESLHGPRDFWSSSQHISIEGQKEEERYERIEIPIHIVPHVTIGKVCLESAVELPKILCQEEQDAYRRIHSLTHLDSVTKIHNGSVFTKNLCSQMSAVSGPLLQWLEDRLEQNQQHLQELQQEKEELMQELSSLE
Series [7] deals with T1, 26S proteasome non-ATPase regulatory subunit 14. As to conditions: 200 uM.
Description: Inhibition of 26S proteasome regulatory subunit RPN11 deubiquitinating activity in human erythrocytes at 200 uM using Ub4-pepOG protein substrate preincubated for 1 hr followed by substrate addition measured after 80 mins by fluorescence polarization assay relative to control
The target of a further series is T4, STAM-binding protein (Homo sapiens, UniProt O95630).
T4 sequence (O95630 whole entry): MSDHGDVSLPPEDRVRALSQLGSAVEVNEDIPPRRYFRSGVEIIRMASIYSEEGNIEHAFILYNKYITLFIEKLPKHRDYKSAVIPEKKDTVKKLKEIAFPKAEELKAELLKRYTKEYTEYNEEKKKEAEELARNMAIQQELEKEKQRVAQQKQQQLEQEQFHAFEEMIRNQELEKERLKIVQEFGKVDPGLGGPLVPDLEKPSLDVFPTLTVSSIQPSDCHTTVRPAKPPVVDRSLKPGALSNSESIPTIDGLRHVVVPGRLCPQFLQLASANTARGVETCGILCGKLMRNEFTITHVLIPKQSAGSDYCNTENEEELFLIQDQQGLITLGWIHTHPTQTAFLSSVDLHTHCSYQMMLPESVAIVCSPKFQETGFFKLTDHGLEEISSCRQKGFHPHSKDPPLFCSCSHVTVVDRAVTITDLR
Description: Inhibition of AMSH (unknown origin) using DiUbK63TAMRA as substrate by fluorescence assay.

Series [8] in a line: Aqueous solubility of the compound. As to conditions: buffer. The class given is physicochemical.

Histone deacetylase 1, sequence (Q13547 whole entry): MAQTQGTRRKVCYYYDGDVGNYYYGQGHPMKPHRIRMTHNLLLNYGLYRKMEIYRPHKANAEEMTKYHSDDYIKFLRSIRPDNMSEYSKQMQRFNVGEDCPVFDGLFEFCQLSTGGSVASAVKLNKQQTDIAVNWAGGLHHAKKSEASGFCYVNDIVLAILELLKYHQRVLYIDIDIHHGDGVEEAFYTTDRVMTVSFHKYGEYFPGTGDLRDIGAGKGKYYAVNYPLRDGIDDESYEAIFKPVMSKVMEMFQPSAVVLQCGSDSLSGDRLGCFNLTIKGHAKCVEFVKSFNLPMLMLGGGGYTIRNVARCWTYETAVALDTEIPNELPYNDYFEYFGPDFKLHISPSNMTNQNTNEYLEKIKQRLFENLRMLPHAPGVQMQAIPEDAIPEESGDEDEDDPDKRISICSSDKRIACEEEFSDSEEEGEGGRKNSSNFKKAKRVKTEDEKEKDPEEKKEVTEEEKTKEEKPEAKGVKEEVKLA
Description for HCT-116: Antiproliferative activity against human HCT116 cells after 72 hrs by Cell Titer-Glo assay

In the case of `CC(C)C[C@H](NC(=O)[C@H](Cc1ccccc1)NC(=O)c1cnccn1)B(O)O` [BORTEZOMIB], the IC50 in the series on A549 worked out at 0.092 µM; in the series with HEK-293T it was 0.012 µM.

As to `Cc1cc(S)c2ncccc2c1`, the IC50 in series [1] was greater than 200 µM; in series [2] it was 0.9 µM; on Histone deacetylase 1, greater than 50 µM; in [3], greater than 50 µM; in series [4], greater than 200 µM; against Carbonic anhydrase 2, greater than 100 µM.

In the case of `Cc1ccnc2c(S)cccc12`, the IC50 in series [1] is greater than 200 µM; in series [2], 5.7 µM; in [5], 25.1 µM; at Histone deacetylase 1, greater than 200 µM; in series [3], greater than 200 µM; in series [4], greater than 200 µM. Also, the IC50 against Carbonic anhydrase 2 is greater than 200 µM; in the series on HCT-116, greater than 10 µM.

Turning to `Cc1ccc(S)c2ncccc12`, the IC50 in series [1] is greater than 200 µM; in [2], 2.5 µM; in [5], 2.9 µM; at Histone deacetylase 1, greater than 200 µM; in [3] it was greater than 200 µM; in [4], greater than 200 µM. Besides, the IC50 on Carbonic anhydrase 2 was greater than 200 µM; with HCT-116 it was 3.4 µM.

Regarding `Sc1cccc2cccnc12`, the IC50 is greater than 200 µM in series [1]; 2.5 to 2.8 µM in series [2]; 10.3 µM in series [5]; greater than 200 µM on Histone deacetylase 1; greater than 200 µM in series [3]; greater than 200 µM in series [4]. In addition, the IC50 against Carbonic anhydrase 2 is greater than 200 µM; in the series on HCT-116, 1.6 µM. For the same compound, the inhibition result in series [6] is “Active”. In [7], this compound yielded an inhibition of 100%.

Turning to `O=C(Nc1nccs1)c1cnc2c(SSc3cccc4cc(C(=O)Nc5nccs5)cnc34)cccc2c1`, the IC50 was found to be 20 µM in series [5], 4.7 µM on STAM-binding protein, 5.8 µM with A549 and 6.4 µM with HEK-293T. Moreover, the solubility entry in [8] is listed as “Soluble”.

Consider `Cc1cnc2c(S)cccc2c1`, for which the IC50 was greater than 200 µM in series [1]; 1.6 µM in series [2]; 7.1 µM in [5]; greater than 50 µM on Histone deacetylase 1; greater than 200 µM in series [3]; greater than 200 µM in series [4]. The IC50 against Carbonic anhydrase 2 was greater than 40 µM; with HCT-116 it was 2.6 µM.

Take `O=C(NCCc1nccs1)c1cnc2c(SSc3cccc4cc(C(=O)NCCc5nccs5)cnc34)cccc2c1`: the IC50 in the series with A549 came out at 3.8 µM; in the series on HEK-293T, 2.1 µM. Moreover, in [8], the solubility result is recorded as “Soluble”.
